Tests used:
[1] = test system: Zymoseptoria tritici; test: Leaf blotch of wheat (SEPTTR) disease control on wheat seedlings; assay type: in vivo; parameters: key to SEPTTR 1DP, HV activity at 100 ppm (% control rating) / SEPTTR 3DC, HV activity at 100 ppm (% control rating) / SEPTTR disease control, 1DP / SEPTTR disease control, 3DC / SEPTTR 1DP disease control rating, HV activity / SEPTTR 3DC disease control rating, HV activity / SEPTTR 3DC, LV activity at 125.1 g/H (% Control rating) / SEPTTR 1DP, LV activity at 125.1 g/H (% Control rating) / SEPTTR 1DP disease control rating, LV activity at 125.1 g/H / SEPTTR 3DC disease control rating, LV activity at 125.1 g/H / SEPTTR 3DC disease control rating, HV activity at 100 ppm / SEPTTR 1DP disease control rating, HV activity at 100 ppm / HV activity at 100 ppm SEPTTR 3DC (disease control rating) / HV activity at 100 ppm SEPTTR 1DP (disease control rating) / LV activity at 125.1 g/H SEPTTR 1DP (disease control rating) / LV activity at 125.1 g/H SEPTTR 3DC (disease control rating): A: > 80; B: ≤ 80; C: Not Tested; D: No Activity Observed in the Reported Assay; conditions: for SEPTTR 1DP, LV activity at 125.1 g/H (% Control rating) / SEPTTR 3DC, LV activity at 125.1 g/H (% Control rating): low volume application; for SEPTTR 1DP, LV activity at 125.1 g/H (% Control rating) / SEPTTR 1DP, HV activity at 100 ppm (% control rating): 1 Day Protectant; for SEPTTR 3DC, LV activity at 125.1 g/H (% Control rating) / SEPTTR 3DC, HV activity at 100 ppm (% control rating): 3 Day Curative; for SEPTTR 1DP, HV activity at 100 ppm (% control rating) / SEPTTR 3DC, HV activity at 100 ppm (% control rating): HV application
[2] = test system: Puccinia triticina; test: Wheat brown rust (PUCCRT) disease control on wheat seedlings; assay type: in vivo; parameters: key to PUCCRT 3DC, HV activity at 100 ppm (% control rating) / PUCCRT disease control, 3DC / PUCCRT 1DP disease control rating, HV activity / PUCCRT 3DC disease control rating, HV activity / PUCCRT 3DC, LV activity at 125.1 g/H (% Control rating) / PUCCRT 1DP, LV activity at 125.1 g/H (% Control rating) / PUCCRT 3DC disease control rating, LV activity at 125.1 g/H / PUCCRT 1DP disease control rating, LV activity at 125.1 g/H / PUCCRT 3DC disease control rating, HV activity at 100 ppm / PUCCRT 1DP disease control rating, HV activity at 100 ppm / HV activity at 100 ppm PUCCRT 3DC (disease control rating) / LV activity at 125.1 g/H PUCCRT 1DP (disease control rating) / LV activity at 125.1 g/H PUCCRT 3DC (disease control rating): A: > 80; B: ≤ 80; C: Not Tested; D: No Activity Observed in the Reported Assay; conditions: for PUCCRT 1DP, LV activity at 125.1 g/H (% Control rating) / PUCCRT 3DC, LV activity at 125.1 g/H (% Control rating): low volume application; for PUCCRT 1DP, LV activity at 125.1 g/H (% Control rating) / PUCCRT 1DP, HV activity at 100 ppm (% control rating): 1 Day Protectant; for PUCCRT 3DC, LV activity at 125.1 g/H (% Control rating) / PUCCRT 3DC, HV activity at 100 ppm (% control rating): 3 Day Curative; for PUCCRT 1DP, HV activity at 100 ppm (% control rating) / PUCCRT 3DC, HV activity at 100 ppm (% control rating): HV application

| SMILES | SEPTTR 1DP, LV activity at 125.1 g/H (% Control rating) [1] | SEPTTR 3DC, LV activity at 125.1 g/H (% Control rating) [1] | PUCCRT 1DP, LV activity at 125.1 g/H (% Control rating) [2] | PUCCRT 3DC, LV activity at 125.1 g/H (% Control rating) [2] | SEPTTR 1DP, HV activity at 100 ppm (% control rating) [1] | SEPTTR 3DC, HV activity at 100 ppm (% control rating) [1] | PUCCRT 1DP, HV activity at 100 ppm (% control rating) [2] | PUCCRT 3DC, HV activity at 100 ppm (% control rating) [2] |
| --- | --- | --- | --- | --- | --- | --- | --- | --- |
| COc1ccnc(C(=O)N[C@@H](C)C(=O)O[C@@H](C)[C@H](Oc2cc(F)cc(Cl)c2)C(C)C)c1OC(C)=O [Cmpd 628] | B (≤ 80) | A (> 80) | A (> 80) | A (> 80) |  |  |  |  |
| COc1ccnc(C(=O)N[C@@H](C)C(=O)O[C@@H](C)[C@H](Oc2ccc(C(F)(F)F)cc2)C(C)C)c1OC(C)=O [Cmpd 629] | B (≤ 80) | B (≤ 80) | A (> 80) | A (> 80) |  |  |  |  |
| CC[C@H](C)[C@H](NC(=O)c1nccc(OC)c1OC(C)=O)C(=O)O[C@@H](C)[C@H](Oc1cc(F)ccc1F)C(C)C [Cmpd 630] | D | D | A (> 80) | A (> 80) |  |  |  |  |
| COc1ccnc(C(=O)N[C@@H](C)C(=O)O[C@@H](C)[C@H](Oc2cccc3ccccc23)C(C)C)c1OC(C)=O [Cmpd 631] | B (≤ 80) | D | A (> 80) | A (> 80) |  |  |  |  |
| COc1ccnc(C(=O)N[C@@H](C)C(=O)O[C@@H](C)[C@H](Oc2ccc3ccccc3c2)C(C)C)c1OC(C)=O [Cmpd 632] | D | D | A (> 80) | A (> 80) |  |  |  |  |
| COc1ccnc(C(=O)N[C@H](C(=O)O[C@@H](C)[C@H](Oc2ccc3ccccc3c2)C(C)C)C(C)C)c1OCOC(C)=O [Cmpd 633] | B (≤ 80) | A (> 80) | A (> 80) | A (> 80) |  |  |  |  |
| COc1ccnc(C(=O)N[C@@H](C)C(=O)O[C@@H](C)[C@H](Oc2ccc(Cl)cc2Cl)c2ccccc2)c1OCOC(C)=O [Cmpd 634] | A (> 80) | A (> 80) | A (> 80) | B (≤ 80) |  |  |  |  |
| COc1ccnc(C(=O)N[C@@H](C)C(=O)O[C@@H](C)[C@H](Oc2ccc(Cl)cc2Cl)c2ccccc2)c1OC(C)=O [Cmpd 635] | A (> 80) | A (> 80) | A (> 80) | B (≤ 80) |  |  |  |  |
| COc1ccnc(C(=O)N[C@@H](C)C(=O)O[C@@H](C)[C@H](Oc2ccc(Cl)cc2)c2ccccc2)c1OCOC(C)=O [Cmpd 636] | A (> 80) | A (> 80) | A (> 80) | A (> 80) |  |  |  |  |
| COc1ccnc(C(=O)N[C@@H](C)C(=O)O[C@@H](C)[C@H](Oc2cccc(Cl)c2)c2ccccc2)c1OC(C)=O [Cmpd 638] | A (> 80) | A (> 80) | A (> 80) | B (≤ 80) |  |  |  |  |
| COc1ccnc(C(=O)N[C@@H](C)C(=O)O[C@@H](C)[C@H](Oc2cc(F)cc(Cl)c2)c2ccccc2)c1OCOC(C)=O [Cmpd 641] | A (> 80) | A (> 80) | A (> 80) | B (≤ 80) |  |  |  |  |
| CC[C@H](NC(=O)c1nccc(OC)c1OCOC(C)=O)C(=O)O[C@@H](C)[C@H](Oc1cc(F)cc(Cl)c1)c1ccccc1 [Cmpd 643] | A (> 80) | A (> 80) | A (> 80) | B (≤ 80) |  |  |  |  |
| CC[C@H](NC(=O)c1nccc(OC)c1OC(C)=O)C(=O)O[C@@H](C)[C@H](Oc1cc(F)cc(Cl)c1)c1ccccc1 [Cmpd 644] | A (> 80) | A (> 80) | A (> 80) | B (≤ 80) |  |  |  |  |
| CCC(CC)[C@@H](Oc1cccc(F)c1)[C@H](C)OC(=O)[C@@H](NC(=O)c1nccc(OC)c1OCOC(C)=O)C(C)C [Cmpd 645] | D | A (> 80) | A (> 80) | A (> 80) | A (> 80) | A (> 80) | A (> 80) | A (> 80) |
| CCC(CC)[C@@H](Oc1ccc(F)cc1)[C@H](C)OC(=O)[C@@H](NC(=O)c1nccc(OC)c1OCOC(C)=O)C(C)C [Cmpd 646] | B (≤ 80) | B (≤ 80) | A (> 80) | A (> 80) | A (> 80) | A (> 80) | A (> 80) | A (> 80) |
| CCC(CC)[C@@H](Oc1cccc(Cl)c1)[C@H](C)OC(=O)[C@@H](NC(=O)c1nccc(OC)c1OCOC(C)=O)C(C)C [Cmpd 647] | A (> 80) | B (≤ 80) | A (> 80) | B (≤ 80) |  |  |  |  |
| CCC(CC)[C@@H](Oc1ccc(Cl)cc1)[C@H](C)OC(=O)[C@@H](NC(=O)c1nccc(OC)c1OCOC(C)=O)C(C)C [Cmpd 648] | B (≤ 80) | A (> 80) | A (> 80) | B (≤ 80) |  |  |  |  |
| CCC(CC)[C@@H](Oc1ccc(Cl)cc1Cl)[C@H](C)OC(=O)[C@@H](NC(=O)c1nccc(OC)c1OCOC(C)=O)C(C)C [Cmpd 649] | D | D | A (> 80) | B (≤ 80) |  |  |  |  |
| CCC(CC)[C@@H](Oc1cc(F)ccc1F)[C@H](C)OC(=O)[C@@H](NC(=O)c1nccc(OC)c1OCOC(C)=O)C(C)C [Cmpd 650] | D | B (≤ 80) | A (> 80) | B (≤ 80) |  |  |  |  |
| CCC(CC)[C@@H](Oc1cc(F)cc(Cl)c1)[C@H](C)OC(=O)[C@@H](NC(=O)c1nccc(OC)c1OCOC(C)=O)C(C)C [Cmpd 651] | A (> 80) | A (> 80) | A (> 80) | B (≤ 80) |  |  |  |  |
| CCC(CC)[C@@H](Oc1ccccc1Cl)[C@H](C)OC(=O)[C@@H](NC(=O)c1nccc(OC)c1OCOC(C)=O)C(C)C [Cmpd 652] | B (≤ 80) | B (≤ 80) | A (> 80) | B (≤ 80) |  |  |  |  |
| CCC(CC)[C@@H](Oc1ccc(C(F)(F)F)cc1)[C@H](C)OC(=O)[C@@H](NC(=O)c1nccc(OC)c1OCOC(C)=O)C(C)C [Cmpd 653] | D | B (≤ 80) | A (> 80) | B (≤ 80) |  |  |  |  |
| CCC(CC)[C@@H](Oc1cccc(-c2ccccc2)c1)[C@H](C)OC(=O)[C@@H](NC(=O)c1nccc(OC)c1OCOC(C)=O)C(C)C [Cmpd 654] | B (≤ 80) | D | A (> 80) | D |  |  |  |  |

From US20180000085A1, “USE OF PICOLINAMIDE COMPOUNDS WITH FUNGICIDAL ACTIVITY” (DOW AGROSCIENCES LLC, priority 2014, published 2018)
